# Results as given in patent publication US20140193827A1 (TEVA PHARMACEUTICAL INDUSTRIES, LTD., priority 2013, published 2014).
# Test system: GA-primed murine splenocytes
# Assay: ANOVA-based pattern identification method
# Assay type: cell-based, mouse
# Details: DOWN IN GA AND REF ONLY
# Description: We sought to identify probes matching specific patterns of expression across experimental conditions using a technique that referred to as the ANOVA-based Pattern Identification Method.
# To carry out the analysis in a general manner, we computed the 6 p-values required to do pairwise comparisons of all 4 conditions for all probes using the ANOVA1 function in MATLAB. We then identified sets of probes matching the desired pattern. In the example above, probes were identified as being only affected by PG if their 6 pairwise comparison pvalues matched the following pattern (pGA-PG<0.05, pPG-reference standard<0.05, pPG-Medium<0.05, pGAMedium>0.05, pGA-reference standard>0.05, preference standard-Medium>0.05).
substance,measurement,value
glatiramer acetate [GA],AA536749 expression level,8.75
same,C5F3R expression level,5.814
same,CD33 expression level,6.382
same,CD63 expression level,7.484
same,CLEC4E expression level,6.76
same,CXCR4 expression level,9.154
same,GAS7 expression level,6.685
same,GPR97 expression level,6.1434
same,KLC4 expression level,7.786
same,LOC385923 expression level,7.651
same,LOC386268 expression level,6.655
same,LOC386288 expression level,7.006
same,LOC386360 expression level,9.445
same,TMEM38B expression level,8.3
same,average expression of 1100001G20RIK,6.239
same,average expression of 1110014N23RIK,9.678
same,average expression of 1200002N14RIK,6.896
same,average expression of 1300010F03R1K,6.604
same,average expression of 1300010F03RIK,6.764
same,average expression of 1700073E17RIK,5.669
same,average expression of 1810009N02RIK,8.11
same,average expression of 1810030N24RIK,6.84
same,average expression of 2010001M09RIK,13.2
same,average expression of 2310040G07RIK,5.712
same,average expression of 2310067B10RIK,7.502
same,average expression of 2310079N02RIK,9.098
same,average expression of 2510022D24RIK,8.141
same,average expression of 2610024M03RIK,6.018
same,average expression of 2610028H07RIK,10.1
same,average expression of 2810402K13RIK,8.169
same,average expression of 2810422O20RIK,7.018
same,average expression of 2900079J23RIK,5.766
same,average expression of 3110004L20RIK,5.934
same,average expression of 3110082D06RIK,5.99
same,average expression of 4930519F16RIK,5.617
same,average expression of 4930572J05RIK,10.41
same,average expression of 5031439G07RIK,7.967
same,average expression of 5330417C22RIK,5.64
same,average expression of 5830415F09RIK,6.998
same,average expression of 6230425C21RIK,7.021
same,average expression of 6430511F03,6.247
same,average expression of 6430526N21RIK,7.232
same,average expression of 6720480F11RIK,5.641
same,average expression of 6720486H14RIK,5.584
same,average expression of 9030025P20RIK,8.593
same,average expression of 9330152L17,5.75
same,average expression of A430043M19RIK,6.108
same,average expression of A630038P11RIK,5.552
same,average expression of A730017D01RIK,6.519
same,average expression of A930014P08RIK,5.554
same,average expression of ABCC4,7.757
same,average expression of ACBD4,9.154
same,average expression of ACP2,6.811
same,average expression of ACTR3B,6.47
same,average expression of ADAM11,5.629
same,average expression of AGAP1,5.989
same,average expression of ANKRD13A,10.24
same,average expression of APP,6.949
same,average expression of ARHGAP22,6.192
same,average expression of ATP6V1B2,10.4
same,average expression of AW011738,6.2494
same,average expression of B130002B06RIK,5.7347
same,average expression of B930048N13RIK,5.895
same,average expression of B930049N04RIK,5.592
same,average expression of B930097H17RIK,5.792
same,average expression of BC014795,8.05
same,average expression of BC065397,6.46
same,average expression of BC066107,6.578
same,average expression of BMP3,5.623
same,average expression of BRD2,11.26
same,average expression of C330019G07RIK,6.738
same,average expression of C430003P19RIK,9.571
same,average expression of CAGE1,5.862
same,average expression of CASP1,11.51
same,average expression of CBLC,5.866
same,average expression of CD151,8.029
same,average expression of CENTG3,6.784
same,average expression of CEPT1,10.22
same,average expression of CFB,6.244
same,average expression of CLEC4A1,6.263
same,average expression of CLEC5A,5.873
same,average expression of CNTNAP3,5.796
same,average expression of COgeneric,8.105
same,average expression of CREG1,6.616
same,average expression of CRTAC1,5.925
same,average expression of CTSL,5.744
same,average expression of D030051N19RIK,8.287
same,average expression of D030072B18RIK,5.56
same,average expression of DGKQ,6.895
same,average expression of DLG3,7.023
same,average expression of DNMT3L,6.042
same,average expression of DUSP6,5.768
same,average expression of E330023P07RIK,5.77
same,average expression of EG434402,9.171
same,average expression of EG633640,6.136
same,average expression of ELL,9.635
same,average expression of EPB4.1L3,5.896
same,average expression of EPN3,5.711
same,average expression of ERCC4,8.15
same,average expression of FA2H,5.977
same,average expression of FBXL20,7.805
same,average expression of FCMD,6.473
same,average expression of FOS,6.875
same,average expression of FRMPD1,5.584
same,average expression of GAA,8.021
same,average expression of GALGT1,7.448
same,average expression of GALNT10,8.096
same,average expression of GDPD1,6.392
same,average expression of GM498,5.674
same,average expression of GPS2,9.303
same,average expression of GSTM2,5.945
same,average expression of GTPBP1,9.185
same,average expression of HMOX1,6.561
same,average expression of HRSP12,8.037
same,average expression of IGK-V33,9.992
same,average expression of IGLC2_J00595—IG_LAMBDA—CONSTANT_2_14,13.7
same,average expression of IRAK3,9.019
same,average expression of IRF3,7.749
same,average expression of IVD,9.212
same,average expression of KCNC4,5.832
same,average expression of KRT39,5.551
same,average expression of KRTAP5-4,5.651
same,average expression of LOC193563,5.759
same,average expression of LOC238836,13.84
same,average expression of LOC243025,6.623
same,average expression of LOC327767,5.978
